Data from patent publication US8703701B2 (Indiana University Research and Technology Corporation, priority 2009, dated 2014).
Starred links: 1 amine or outer side, 2 acyl side, 3 side chain; linkers in the order of their positions; H or OH if unused. Residues, ends and D or L forms follow the SMILES beside them. Groups on a side chain read outwards from the residue. *: point of attachment. Isobutyryl(2-imidazol-4-yl) = CC(C)(C(=O)*)c1c[nH]cn1; γGlu = O=C(O)[C@H](CCC(=O)[*:2])N[*:1]; Palmitoyl = CCCCCCCCCCCCCCCC(=O)*

Tests used:
glucagon receptor = molecular target: T1, glucagon receptor (Homo sapiens, UniProt P47871); test: cAMP induction, firefly luciferase reporter assay, glucagon receptor; type: cell-based; conditions: for Activity at Glucagon Receptor % Relative Activity: compared to native glucagon
T1 construct: expressed in transfected cells; host or cells: HEK293
T1 sequence (P47871 26-477): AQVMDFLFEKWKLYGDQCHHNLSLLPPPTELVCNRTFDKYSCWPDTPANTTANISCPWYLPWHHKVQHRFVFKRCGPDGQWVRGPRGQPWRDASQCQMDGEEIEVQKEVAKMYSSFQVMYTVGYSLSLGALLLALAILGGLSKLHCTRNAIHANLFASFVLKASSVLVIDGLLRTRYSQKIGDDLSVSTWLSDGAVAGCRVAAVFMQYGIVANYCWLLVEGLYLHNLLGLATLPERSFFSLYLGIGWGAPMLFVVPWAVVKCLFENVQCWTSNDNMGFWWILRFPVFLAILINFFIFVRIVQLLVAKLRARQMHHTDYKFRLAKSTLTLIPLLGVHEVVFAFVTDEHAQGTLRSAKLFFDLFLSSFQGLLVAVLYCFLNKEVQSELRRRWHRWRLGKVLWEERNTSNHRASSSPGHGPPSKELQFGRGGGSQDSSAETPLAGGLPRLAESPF
Method: (§1) The ability of each peptide to induce cAMP was measured in a firefly luciferase-based reporter assay.
(§2) At the end of the incubation, 100 μL of LucLite luminescence substrate reagent (Perkin Elmer, Wellesley, Mass.) were added to each well. The plate was shaken briefly, incubated 10 min in the dark and light output was measured on MicroBeta-1450 liquid scintillation counter (Perkin-Elmer, Wellesley, Mass.).

GLP-1 receptor = molecular target: T2, GLP-1 receptor (Homo sapiens, UniProt P43220); test: cAMP induction, firefly luciferase reporter assay, GLP-1 receptor; type: cell-based; conditions: for Activity at GLP-1 Receptor % Relative Activity: compared to native GLP-1
T2 construct: expressed in transfected cells; host or cells: HEK293
T2 sequence (P43220 24-463): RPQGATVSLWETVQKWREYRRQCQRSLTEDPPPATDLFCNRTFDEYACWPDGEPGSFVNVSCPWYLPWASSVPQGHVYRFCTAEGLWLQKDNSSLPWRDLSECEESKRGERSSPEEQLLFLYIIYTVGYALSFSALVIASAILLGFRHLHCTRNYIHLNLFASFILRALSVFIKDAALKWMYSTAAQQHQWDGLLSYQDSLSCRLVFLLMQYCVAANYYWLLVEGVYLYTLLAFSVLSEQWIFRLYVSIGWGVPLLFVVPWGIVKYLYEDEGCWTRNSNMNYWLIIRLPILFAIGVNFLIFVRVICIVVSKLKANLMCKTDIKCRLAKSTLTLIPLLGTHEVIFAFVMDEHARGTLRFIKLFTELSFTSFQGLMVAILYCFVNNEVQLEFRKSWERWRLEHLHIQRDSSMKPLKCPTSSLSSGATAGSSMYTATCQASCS
Method: as §1, §2

[1] = Activity at Glucagon Receptor EC50 [pM], Table 3A
[2] = Activity at GLP-1 Receptor EC50 [nM], Table 6
[3] = Activity at GLP-1 Receptor EC50 [pM], Table 3A

Row | Compound | Activity at Glucagon Receptor % Relative Activity (glucagon receptor; Table 6) | EC50 (GLP-1 receptor; [2]) | Activity at GLP-1 Receptor % Relative Activity (GLP-1 receptor; Table 6) | Activity at Glucagon Receptor % Relative Activity (glucagon receptor; Table 5) | Activity at GLP-1 Receptor % Relative Activity (GLP-1 receptor; Table 5) | other results
1 | CCCCCCCCCCCCCCCC(=O)N[C@@H](CCC(=O)NCCCC[C@H](NC(=O)[C@H](CC(=O)O)NC(=O)[C@H](CO)NC(=O)[C@@H](NC(=O)[C@H](Cc1ccccc1)NC(=O)[C@@H](NC(=O)CNC(=O)[C@H](CCC(N)=O)NC(=O)[C@@H](CO)NC(=O)[C@@H](N)Cc1c[nH]cn1)[C@@H](C)O)[C@@H](C)O)C(=O)N[C@@H](CO)C(=O)N[C@@H](CCCCN)C(=O)N[C@@H](Cc1ccc(O)cc1)C(=O)N[C@@H](CC(C)C)C(=O)N[C@@H](CC(=O)O)C(=O)N[C@@H](CCC(=O)O)C(=O)N[C@@H](CCCNC(=N)N)C(=O)N[C@@H](C)C(=O)N[C@@H](C)C(=O)N[C@@H](CCC(N)=O)C(=O)N[C@@H](CC(=O)O)C(=O)N[C@@H](Cc1ccccc1)C(=O)N[C@H](C(=O)N[C@@H](CCC(N)=O)C(=O)N[C@@H](Cc1c[nH]c2ccccc12)C(=O)N[C@@H](CC(C)C)C(=O)N[C@@H](CC(C)C)C(=O)N[C@@H](CC(=O)O)C(=O)N[C@H](C(N)=O)[C@@H](C)O)C(C)C)C(=O)O [compound 51] | 314% | 0.004 nM | 949% |  |  | EC50 (glucagon receptor; Activity at Glucagon Receptor EC50 [nM], Table 6): 0.004 nM; EC50 (glucagon receptor; [1]): 0.0035 nM; Activity at Glucagon Receptor % Relative Activity (glucagon receptor; Table 3A): 314%; EC50 (GLP-1 receptor; [3]): 0.0039 nM; Activity at GLP-1 Receptor % Relative Activity (GLP-1 receptor; Table 3A): 949%
2 | CCCCCCCCCCCCCCCC(=O)N[C@@H](CCC(=O)NCCCC[C@H](NC(=O)[C@H](CC(=O)O)NC(=O)[C@H](CO)NC(=O)[C@@H](NC(=O)[C@H](Cc1ccccc1)NC(=O)[C@@H](NC(=O)CNC(=O)[C@H](CCC(N)=O)NC(=O)C(C)(C)NC(=O)[C@@H](N)Cc1c[nH]cn1)[C@@H](C)O)[C@@H](C)O)C(=O)N[C@@H](CO)C(=O)N[C@@H](CCCCN)C(=O)N[C@@H](Cc1ccc(O)cc1)C(=O)N[C@@H](CC(C)C)C(=O)N[C@@H](CC(=O)O)C(=O)N[C@@H](CCC(=O)O)C(=O)N[C@@H](CCC(N)=O)C(=O)N[C@@H](C)C(=O)N[C@@H](C)C(=O)N[C@@H](CCCCN)C(=O)N[C@@H](CCC(=O)O)C(=O)N[C@@H](Cc1ccccc1)C(=O)N[C@H](C(=O)N[C@@H](C)C(=O)N[C@@H](Cc1c[nH]c2ccccc12)C(=O)N[C@@H](CC(C)C)C(=O)N[C@@H](CC(C)C)C(=O)N[C@@H](CC(=O)O)C(=O)N[C@H](C(N)=O)[C@@H](C)O)[C@@H](C)CC)C(=O)O [compound 52] |  |  |  |  |  | EC50 (glucagon receptor; [1]): 0.0029 nM; Activity at Glucagon Receptor % Relative Activity (glucagon receptor; Table 3A): 379%; EC50 (GLP-1 receptor; [3]): 0.0029 nM; Activity at GLP-1 Receptor % Relative Activity (GLP-1 receptor; Table 3A): 1276%
3 | CCCCCCCCCCCCCCCC(=O)N[C@@H](CCC(=O)NCCCC[C@H](NC(=O)[C@H](CC(=O)O)NC(=O)[C@H](CO)NC(=O)[C@@H](NC(=O)[C@H](Cc1ccccc1)NC(=O)[C@@H](NC(=O)CNC(=O)[C@H](CCC(N)=O)NC(=O)[C@@H](CO)NC(=O)[C@@H](N)Cc1c[nH]cn1)[C@@H](C)O)[C@@H](C)O)C(=O)N[C@@H](CO)C(=O)N[C@@H](CCCCN)C(=O)N[C@@H](Cc1ccc(O)cc1)C(=O)N[C@@H](CC(C)C)C(=O)N[C@@H](CC(=O)O)C(=O)N[C@@H](CCC(=O)O)C(=O)N[C@@H](CCC(N)=O)C(=O)N[C@@H](C)C(=O)N[C@@H](C)C(=O)N[C@@H](CCCCN)C(=O)N[C@@H](CCC(=O)O)C(=O)N[C@@H](Cc1ccccc1)C(=O)N[C@H](C(=O)N[C@@H](CS)C(=O)N[C@@H](Cc1c[nH]c2ccccc12)C(=O)N[C@@H](CC(C)C)C(=O)N[C@@H](CC(C)C)C(=O)N[C@@H](CC(=O)O)C(=O)N[C@H](C(N)=O)[C@@H](C)O)[C@@H](C)CC)C(=O)O [compound 53] |  |  |  | 411% | 708% | 
4 | CCCCCCCCCCCCCCCC(=O)N[C@@H](CCC(=O)NCCCC[C@H](NC(=O)[C@H](CC(=O)O)NC(=O)[C@H](CO)NC(=O)[C@@H](NC(=O)[C@H](Cc1ccccc1)NC(=O)[C@@H](NC(=O)CNC(=O)[C@H](CCC(N)=O)NC(=O)[C@H](CO)NC(=O)C(C)(C)c1c[nH]cn1)[C@@H](C)O)[C@@H](C)O)C(=O)N[C@@H](CO)C(=O)N[C@@H](CCCCN)C(=O)N[C@@H](Cc1ccc(O)cc1)C(=O)N[C@@H](CC(C)C)C(=O)N[C@@H](CC(=O)O)C(=O)N[C@@H](CCC(=O)O)C(=O)N[C@@H](CCC(N)=O)C(=O)N[C@@H](C)C(=O)N[C@@H](C)C(=O)N[C@@H](CCCCN)C(=O)N[C@@H](CCC(=O)O)C(=O)N[C@@H](Cc1ccccc1)C(=O)N[C@H](C(=O)N[C@@H](CS)C(=O)N[C@@H](Cc1c[nH]c2ccccc12)C(=O)N[C@@H](CC(C)C)C(=O)N[C@@H](CC(C)C)C(=O)N[C@@H](CC(=O)O)C(=O)N[C@H](C(N)=O)[C@@H](C)O)[C@@H](C)CC)C(=O)O [compound 54] ({Isobutyryl(2-imidazol-4-yl)}-SQGTFTSDK([γGlu-Palmitoyl])SKYLDEQAAKEFICWLLDT-NH2) |  |  |  | 35% | 42% | EC50 (glucagon receptor; Activity at Glucagon Receptor EC50 [nM], Table 5): 0.107 nM
5 | CCCCCCCCCCCCCCCC(=O)N[C@@H](CCC(=O)NCCCC[C@H](NC(=O)[C@H](CC(=O)O)NC(=O)[C@H](CO)NC(=O)[C@@H](NC(=O)[C@H](Cc1ccccc1)NC(=O)[C@@H](NC(=O)CNC(=O)[C@H](CCC(N)=O)NC(=O)[C@@H](CO)NC(=O)[C@@H](N)Cc1c[nH]cn1)[C@@H](C)O)[C@@H](C)O)C(=O)N[C@@H](CO)C(=O)N[C@@H](CCCCN)C(=O)N[C@@H](Cc1ccc(O)cc1)C(=O)N[C@@H](CC(C)C)C(=O)N[C@@H](CC(=O)O)C(=O)N[C@@H](CCC(=O)O)C(=O)N[C@@H](CCC(N)=O)C(=O)N[C@@H](C)C(=O)N[C@@H](C)C(=O)N[C@@H](CCCCN)C(=O)N[C@@H](CCC(=O)O)C(=O)N[C@@H](Cc1ccccc1)C(=O)N[C@H](C(=O)N[C@@H](CS)C(=O)N[C@@H](Cc1c[nH]c2ccccc12)C(=O)N[C@@H](CC(C)C)C(=O)N[C@@H](CC(C)C)C(=O)N[C@@H](CC(=O)O)C(=O)N[C@H](C(=O)NCC(=O)O)[C@@H](C)O)[C@@H](C)CC)C(=O)O [compound 55] |  |  |  | 7% | 16% | 
6 | CCCCCCCCCCCCCCCC(=O)N[C@@H](CCC(=O)NCCCC[C@H](NC(=O)[C@H](CC(=O)O)NC(=O)[C@H](CO)NC(=O)[C@@H](NC(=O)[C@H](Cc1ccccc1)NC(=O)[C@@H](NC(=O)CNC(=O)[C@H](CCC(N)=O)NC(=O)[C@@H](CO)NC(=O)[C@@H](N)Cc1c[nH]cn1)[C@@H](C)O)[C@@H](C)O)C(=O)N[C@@H](CO)C(=O)N[C@@H](CCCCN)C(=O)N[C@@H](Cc1ccc(O)cc1)C(=O)N[C@@H](CC(C)C)C(=O)N[C@@H](CC(=O)O)C(=O)N[C@@H](CCC(=O)O)C(=O)N[C@@H](CCC(N)=O)C(=O)N[C@@H](C)C(=O)N[C@@H](C)C(=O)N[C@@H](CCCCN)C(=O)N[C@@H](CCC(=O)O)C(=O)N[C@@H](Cc1ccccc1)C(=O)N[C@H](C(=O)N[C@@H](CS)C(=O)N[C@@H](Cc1c[nH]c2ccccc12)C(=O)N[C@@H](CC(C)C)C(=O)N[C@@H](CC(C)C)C(=O)N[C@@H](CC(=O)O)C(=O)N[C@H](C(=O)NCC(=O)NCC(=O)O)[C@@H](C)O)[C@@H](C)CC)C(=O)O [compound 56] |  |  |  | 272% | 125% | EC50 (GLP-1 receptor; Activity at GLP-1 Receptor EC50 [nM], Table 5): 0.068 nM
7 | CCCCCCCCCCCCCCCC(=O)N[C@@H](CCC(=O)NCCCC[C@H](NC(=O)[C@H](CC(=O)O)NC(=O)[C@H](CO)NC(=O)[C@@H](NC(=O)[C@H](Cc1ccccc1)NC(=O)[C@@H](NC(=O)CNC(=O)[C@H](CCC(N)=O)NC(=O)C(C)(C)NC(=O)[C@@H](N)Cc1c[nH]cn1)[C@@H](C)O)[C@@H](C)O)C(=O)N[C@@H](CO)C(=O)N[C@@H](CCCCN)C(=O)N[C@@H](Cc1ccc(O)cc1)C(=O)N[C@@H](CC(C)C)C(=O)N[C@@H](CC(=O)O)C(=O)N[C@@H](CCC(=O)O)C(=O)N[C@@H](CCCNC(=N)N)C(=O)N[C@@H](C)C(=O)N[C@@H](C)C(=O)N[C@@H](CCC(N)=O)C(=O)N[C@@H](CC(=O)O)C(=O)N[C@@H](Cc1ccccc1)C(=O)N[C@H](C(=O)N[C@@H](CS)C(=O)N[C@@H](Cc1c[nH]c2ccccc12)C(=O)N[C@@H](CC(C)C)C(=O)N[C@@H](CC(C)C)C(=O)N[C@@H](CC(=O)O)C(=O)N[C@H](C(N)=O)[C@@H](C)O)C(C)C)C(=O)O [compound 58] | 80% | 0.068 nM | 125% |  |  | 
8 | CCCCCCCCCCCCCCCC(=O)N[C@@H](CCC(=O)NCCCC[C@H](NC(=O)[C@H](CC(=O)O)NC(=O)[C@H](CO)NC(=O)[C@@H](NC(=O)[C@H](Cc1ccccc1)NC(=O)[C@@H](NC(=O)CNC(=O)[C@H](CCC(N)=O)NC(=O)[C@@H](C)NC(=O)[C@@H](N)Cc1c[nH]cn1)[C@@H](C)O)[C@@H](C)O)C(=O)N[C@@H](CO)C(=O)N[C@@H](CCCCN)C(=O)N[C@@H](Cc1ccc(O)cc1)C(=O)N[C@@H](CC(C)C)C(=O)N[C@@H](CC(=O)O)C(=O)N[C@@H](CCC(=O)O)C(=O)N[C@@H](CCCNC(=N)N)C(=O)N[C@@H](C)C(=O)N[C@@H](C)C(=O)N[C@@H](CCC(N)=O)C(=O)N[C@@H](CC(=O)O)C(=O)N[C@@H](Cc1ccccc1)C(=O)N[C@H](C(=O)N[C@@H](CS)C(=O)N[C@@H](Cc1c[nH]c2ccccc12)C(=O)N[C@@H](CC(C)C)C(=O)N[C@@H](CC(C)C)C(=O)N[C@@H](CC(=O)O)C(=O)N[C@H](C(N)=O)[C@@H](C)O)C(C)C)C(=O)O [compound 59] | 490% | 0.019 nM | 484% |  |  | 
